# Source: patent publication US8163929B2, “Dihydropyridone amides as P2X7 modulators” (Roche Palo Alto LLC, priority 2008, dated 2012)
# Target: T1, P2X7 (UniProt Q99572)
# T1 sequence (Q99572 1-595): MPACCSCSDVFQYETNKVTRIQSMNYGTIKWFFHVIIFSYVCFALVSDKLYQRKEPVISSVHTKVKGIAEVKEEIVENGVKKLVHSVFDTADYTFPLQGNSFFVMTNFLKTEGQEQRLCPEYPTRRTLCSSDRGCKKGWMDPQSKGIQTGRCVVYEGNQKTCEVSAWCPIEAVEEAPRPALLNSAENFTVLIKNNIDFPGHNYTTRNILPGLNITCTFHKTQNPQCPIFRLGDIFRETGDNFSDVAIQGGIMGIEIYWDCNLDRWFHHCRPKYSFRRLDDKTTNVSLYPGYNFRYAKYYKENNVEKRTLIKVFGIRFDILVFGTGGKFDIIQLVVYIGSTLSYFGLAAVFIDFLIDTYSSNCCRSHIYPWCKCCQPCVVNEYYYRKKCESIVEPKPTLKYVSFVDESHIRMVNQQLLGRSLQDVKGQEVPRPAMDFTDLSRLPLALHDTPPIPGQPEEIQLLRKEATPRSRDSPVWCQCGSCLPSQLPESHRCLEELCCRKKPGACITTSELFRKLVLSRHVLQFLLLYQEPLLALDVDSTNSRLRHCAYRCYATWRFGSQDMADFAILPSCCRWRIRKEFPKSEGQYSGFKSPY
# Test: P2X7 activity of Table 1
# Assay type: cell-based
# Conditions: pIC50 values for P2X7
# Method in brief: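 FLIPR calcium flux with fluo-3 in 1321N1 cells expressing human P2X7 and HEK293 cells expressing rat P2X7, in HBSS with 2 mM CaCl2 and 2.5 mM probenecid. Antagonist pre-incubated 20 min at room temperature, then BzATP added (100 μM human, 5 μM rat). Peak response over 5 min normalised to 5 μM ionomycin.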
row,pIC50,Compound
1,6.015,"Cc1ccc(-n2ccc(=O)n(C)c2=O)cc1NC(=O)C1=CN(C)C(=O)C[C@H]1c1ccc(F)cc1 [Compound 132, (S)-4-(4-Fluoro-phenyl)-1-methyl-6-oxo-1,4,5,6-tetrahydro-pyridine-3-carboxylic acid [2-methyl-5-(3-methyl-2,4-dioxo-3,4-dihydro-2H-pyrimidin-1-yl)-phenyl]-amide]"
2,7.24,"Cc1ccc(-n2ccc(=O)n(C)c2=O)cc1NC(=O)C1=CNC(=O)C[C@H]1c1ccc(F)cc1 [Compound 133, (S)-4-(4-Fluoro-phenyl)-6-oxo-1,4,5,6-tetrahydro-pyridine-3-carboxylic acid [2-methyl-5-(3-methyl-2,4-dioxo-3,4-dihydro-2H-pyrimidin-1-yl)-phenyl]-amide]"
3,6.42,"Cc1ccc(-c2ccc(=O)n(CCO)n2)cc1NC(=O)C1=CN(C)C(=O)C[C@H]1c1ccc(F)cc1 [Compound 134, (S)-4-(4-Fluoro-phenyl)-1-methyl-6-oxo-1,4,5,6-tetrahydro-pyridine-3-carboxylic acid {5-[1-(2-hydroxy-ethyl)-6-oxo-1,6-dihydro-pyridazin-3-yl]-2-methyl-phenyl}-amide]"
4,7.655,"Cc1cnn(-c2ccc(C)c(NC(=O)C3=CNC(=O)C[C@H]3c3ccc(F)cc3)c2)c(=O)c1 [Compound 135, (S)-4-(4-Fluoro-phenyl)-6-oxo-1,4,5,6-tetrahydro-pyridine-3-carboxylic acid [2-methyl-5-(4-methyl-6-oxo-6H-pyridazin-1-yl)-phenyl]-amide]"
5,7.515,"Cc1cnn(-c2ccc(C)c(NC(=O)C3=CN(C)C(=O)C[C@H]3c3ccc(F)cc3)c2)c(=O)c1 [Compound 136, (S)-4-(4-Fluoro-phenyl)-1-methyl-6-oxo-1,4,5,6-tetrahydro-pyridine-3-carboxylic acid [2-methyl-5-(4-methyl-6-oxo-6H-pyridazin-1-yl)-phenyl]-amide]"
6,6.39,"Cc1cc(-c2ccc(F)c(NC(=O)C3=CN(C)C(=O)C[C@H]3c3ccc(F)cc3)c2)n[nH]1 [Compound 137, (S)-4-(4-Fluoro-phenyl)-1-methyl-6-oxo-1,4,5,6-tetrahydro-pyridine-3-carboxylic acid [2-fluoro-5-(5-methyl-1H-pyrazin-3-yl)-phenyl]-amide]"
7,7.83,"Cc1cc(F)c(-c2cccn(C)c2=O)cc1NC(=O)C1=CN(C)C(=O)C[C@H]1c1ccc(F)cc1 [Compound 139, (S)-4-(4-Fluoro-phenyl)-1-methyl-6-oxo-1,4,5,6-tetrahydro-pyridine-3-carboxylic acid [4-fluoro-2-methyl-5-(1-methyl-2-oxo-1,2-dihydro-pyridin-3-yl)-phenyl]-amide]"
8,7.18,"Cc1ccc(=O)n(-c2ccc(C)c(NC(=O)C3=CN(C)C(=O)C[C@H]3c3ccc(F)cc3)c2)c1 [Compound 140, (S)-4-(4-Fluoro-phenyl)-1-methyl-6-oxo-1,4,5,6-tetrahydro-pyridine-3-carboxylic acid [2-methyl-5-(5-methyl-2-oxo-2H-pyridin-1-yl)-phenyl]-amide]"
9,7.36,"CN1C=C(C(=O)Nc2cc(-c3ccnn(C)c3=O)ccc2F)[C@H](c2ccc(F)cc2)CC1=O [Compound 141, (S)-4-(4-Fluoro-phenyl)-1-methyl-6-oxo-1,4,5,6-tetrahydro-pyridine-3-carboxylic acid [2-fluoro-5-(2-methyl-3-oxo-2,3-dihydro-pyridazin-4-yl)-phenyl]-amide]"
10,8.2,"Cn1nccc(-c2ccc(F)c(NC(=O)C3=CNC(=O)C[C@H]3c3ccc(F)cc3)c2)c1=O [Compound 142, (S)-4-(4-Fluoro-phenyl)-6-oxo-1,4,5,6-tetrahydro-pyridine-3-carboxylic acid [2-fluoro-5-(2-methyl-3-oxo-2,3-dihydro-pyridazin-4-yl)-phenyl]-amide]"

# Continued, compound first:
row,Compound,pIC50
1,"Cc1ccc(-c2cc(C)n(CC(=O)NCCN(C)C)n2)cc1NC(=O)C1=CNC(=O)C[C@H]1c1ccc(F)cc1 [Compound 119, (S)-4-(4-Fluoro-phenyl)-6-oxo-1,4,5,6-tetrahydro-pyridine-3-carboxylic acid (5-{1-[(2-dimethylamino-ethylcarbamoyl)-methyl]-5-methyl-1H-pyrazol-3-yl}-2-methyl-phenyl)-amide]",7.685
2,"Cc1ccc(-c2cccn(C)c2=O)cc1NC(=O)C1=CN(C)C(=O)C[C@H]1c1ccc(F)cc1 [Compound 120, (S)-4-(4-Fluoro-phenyl)-1-methyl-6-oxo-1,4,5,6-tetrahydro-pyridine-3-carboxylic acid [2-methyl-5-(1-methyl-2-oxo-1,2-dihydro-pyridin-3-yl)-phenyl]-amide]",7.855
3,"Cc1ccc(-c2ccc(=O)n(CCO)n2)cc1NC(=O)C1=CNC(=O)C[C@H]1c1ccc(F)cc1 [Compound 121, (S)-4-(4-Fluoro-phenyl)-6-oxo-1,4,5,6-tetrahydro-pyridine-3-carboxylic acid {5-[1-(2-hydroxy-ethyl)-6-oxo-1,6-dihydro-pyridazin-3-yl]-2-methyl-phenyl}-amide]",7.385
4,"Cc1ccc(=O)n(-c2ccc(C)c(NC(=O)C3=CNC(=O)C[C@H]3c3ccc(F)cc3)c2)c1 [Compound 122, (S)-4-(4-Fluoro-phenyl)-6-oxo-1,4,5,6-tetrahydro-pyridine-3-carboxylic acid [2-methyl-5-(5-methyl-2-oxo-2H-pyridin-1-yl)-phenyl]-amide]",8.26
5,"CN1C=C(C(=O)Nc2cc(-c3ccn[nH]c3=O)ccc2F)[C@H](c2ccc(F)cc2)CC1=O [Compound 123, (S)-4-(4-Fluoro-phenyl)-1-methyl-6-oxo-1,4,5,6-tetrahydro-pyridine-3-carboxylic acid [2-fluoro-5-(3-oxo-2,3-dihydro-pyridazin-4-yl)-phenyl]-amide]",7.58
6,"Cc1ccc(-n2ccc(=O)[nH]c2=O)cc1NC(=O)C1=CN(C)C(=O)C[C@H]1c1ccc(F)cc1 [Compound 124, (S)-4-(4-Fluoro-phenyl)-1-methyl-6-oxo-1,4,5,6-tetrahydro-pyridine-3-carboxylic acid [5-(2,4-dioxo-3,4-dihydro-2H-pyrimidin-1-yl)-2-methyl-phenyl]-amide]",6.44
7,"Cc1cc(Cl)c(-n2ncccc2=O)cc1NC(=O)C1=CNC(=O)C[C@H]1c1ccc(F)cc1 [Compound 125, (S)-4-(4-Fluoro-phenyl)-6-oxo-1,4,5,6-tetrahydro-pyridine-3-carboxylic acid [4-chloro-2-methyl-5-(6-oxo-6H-pyridazin-1-yl)-phenyl]-amide]",7.606
8,"COC[C@H](O)Cn1nc(-c2ccc(C)c(NC(=O)C3=CN(C)C(=O)C[C@H]3c3ccc(F)cc3)c2)ccc1=O [Compound 126, (S)-4-(4-Fluoro-phenyl)-1-methyl-6-oxo-1,4,5,6-tetrahydro-pyridine-3-carboxylic acid {5-[1-((R)-2-hydroxy-3-methoxy-propyl)-6-oxo-1,6-dihydro-pyridazin-3-yl]-2-methyl-phenyl}-amide]",7.615
9,"Cc1cc(Cl)c(-c2ccnn(C)c2=O)cc1NC(=O)C1=CNC(=O)C[C@H]1c1ccc(F)cc1 [Compound 127, (S)-4-(4-Fluoro-phenyl)-6-oxo-1,4,5,6-tetrahydro-pyridine-3-carboxylic acid [4-chloro-2-methyl-5-(2-methyl-3-oxo-2,3-dihydro-pyridazin-4-yl)-phenyl]-amide]",7.843
10,"Cc1ccc(-c2ccnn(C)c2=O)cc1NC(=O)C1=CN(CC(=O)N(C)C)C(=O)C[C@H]1c1ccc(F)cc1 [Compound 128, (S)-1-Dimethylcarbamoylmethyl-4-(4-fluoro-phenyl)-6-oxo-1,4,5,6-tetrahydro-pyridine-3-carboxylic acid [2-methyl-5-(2-methyl-3-oxo-2,3-dihydro-pyridazin-4-yl)-phenyl]-amide]",7.195
11,"Cc1ccc(-n2cc(C)c(=O)[nH]c2=O)cc1NC(=O)C1=CN(C)C(=O)C[C@H]1c1ccc(F)cc1 [Compound 129, (S)-4-(4-Fluoro-phenyl)-1-methyl-6-oxo-1,4,5,6-tetrahydro-pyridine-3-carboxylic acid [2-methyl-5-(5-methyl-2,4-dioxo-3,4-dihydro-2H-pyrimidin-1-yl)-phenyl]-amide]",7.945
12,"Cc1cc(F)c(-c2ccnn(C)c2=O)cc1NC(=O)C1=CN(C)C(=O)C[C@H]1c1ccc(F)cc1 [Compound 130, (S)-4-(4-Fluoro-phenyl)-1-methyl-6-oxo-1,4,5,6-tetrahydro-pyridine-3-carboxylic acid [4-fluoro-2-methyl-5-(2-methyl-3-oxo-2,3-dihydro-pyridazin-4-yl)-phenyl]-amide]",7.864
13,"CCn1c(=O)cnn(-c2ccc(C)c(NC(=O)C3=CN(C)C(=O)C[C@H]3c3ccc(F)cc3)c2)c1=O [Compound 131, (S)-4-(4-Fluoro-phenyl)-1-methyl-6-oxo-1,4,5,6-tetrahydro-pyridine-3-carboxylic acid [5-(4-ethyl-3,5-dioxo-4,5-dihydro-3H-[1,2,4]triazin-2-yl)-2-methyl-phenyl]-amide]",7.42
